From patent US7906507B2, “Oxadiazoanthracene compounds for the treatment of diabetes” (TransTech Pharma, Inc., priority 2008, dated 2011)

Target: T1, cloned human GLP-1 receptor (Homo sapiens, UniProt P43220)
T1 construct: expressed in transfected cells; host or cells: CHO or HEK-293 cells
Experiment: Functional cell-based assay: cAMP functional assay
Settings: for Emax: 0.5 h, percentage relative to maximal GLP-1-induced cAMP accumulation, na = not active in the assay, read-out: % activation
Experimental: Following overnight incubation of cells, media was removed, and compounds (at concentrations ranging from 0.0001 to 100 μM) were added to monolayer cells in Iscove's modified dulbecco's medium (IMDM), 100 μM RO 20-1724 PDE inhibitor, 0.1% BSA, 2% DMSO in a final volume of 100 μL, and incubated for 30 min at 37° C. 95% O2, 5% CO2 in a humidified incubator. cAMP was quantitated using a homogenous time-resolved fluorescence detection system (cAMP dynamic, CIS bio International).

T1 sequence (P43220 24-463): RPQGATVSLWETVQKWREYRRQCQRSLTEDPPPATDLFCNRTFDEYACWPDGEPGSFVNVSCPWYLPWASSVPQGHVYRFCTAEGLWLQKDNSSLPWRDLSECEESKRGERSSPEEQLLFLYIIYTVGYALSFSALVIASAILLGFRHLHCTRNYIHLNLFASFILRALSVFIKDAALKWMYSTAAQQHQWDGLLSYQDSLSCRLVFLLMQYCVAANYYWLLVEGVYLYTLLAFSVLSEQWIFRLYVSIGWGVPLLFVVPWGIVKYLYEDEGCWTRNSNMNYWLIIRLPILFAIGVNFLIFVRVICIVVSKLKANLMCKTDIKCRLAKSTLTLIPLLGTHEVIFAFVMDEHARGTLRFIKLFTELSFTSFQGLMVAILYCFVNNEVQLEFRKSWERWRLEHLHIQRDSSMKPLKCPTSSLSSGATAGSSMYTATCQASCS

EC50 [nM] | Emax [%] | SMILES
70 | 25 | CC(=O)Nc1nc(C)c(S(=O)(=O)N2Cc3cc4c(cc3C[C@H]2C(=O)N[C@@H](Cc2ccc(-c3ccc(C#N)cc3)cc2)C(=O)O)NC(=O)C(c2ccc(OCc3ccc(Cl)c(Cl)c3)cc2)O4)s1 (single isomer, unassigned) [Example 81]
38.2 | 38 | CC[C@@H](c1ccccc1)N1Cc2cc3c(cc2C[C@H]1C(=O)N[C@@](C)(Cc1ccc(-c2ccc(C#N)cc2)cc1)C(=O)O)N(C)C(=O)C(c1ccc(OCc2ccc(Cl)c(Cl)c2)cc1)O3 (stereo in doubt) [Example 97, (S)-3-(4′-Cyano-biphenyl-4-yl)-2-{[(S)-3-[4-(3,4-dichloro-benzyloxy)-phenyl]-1-methyl-2-oxo-6-((S)-1-phenyl-propyl)-2,3,5,6,7,8-hexahydro-1H-4-oxa-1,6-diaza-anthracene-7-carbonyl]-amino}-2-methyl-propionic acid]
900 | 15 | N#Cc1ccc(-c2ccc(C[C@H](NC(=O)[C@@H]3Cc4cc5c(cc4CN3C(=O)OC3CCC(O)CC3)OC(c3ccc(OCc4ccc(Cl)c(Cl)c4)cc3)C(=O)N5)C(=O)O)cc2)cc1 (stereo partly drawn) [Example 1, (S)-7-[(S)-1-Carboxy-2-(4′-cyano-biphenyl-4-yl)-ethylcarbamoyl]-3-[4-(3,4-dichloro-benzyloxy)-phenyl]-2-oxo-1,2,3,5,7,8-hexahydro-4-oxa-1,6-diaza-anthracene-6-carboxylic acid 4-hydroxy-cyclohexyl ester]
670 | 7.8 | N#Cc1ccc(-c2ccc(C[C@H](NC(=O)[C@@H]3Cc4cc5c(cc4CN3C(=O)OC3CCC(O)C3)OC(c3ccc(OCc4ccc(Cl)c(Cl)c4)cc3)C(=O)N5)C(=O)O)cc2)cc1 (stereo partly drawn) [Example 2, (S)-7-[(S)-1-Carboxy-2-(4′-cyano-biphenyl-4-yl)-ethylcarbamoyl]-3-[4-(3,4-dichloro-benzyloxy)-phenyl]-2-oxo-1,2,3,5,7,8-hexahydro-4-oxa-1,6-diaza-anthracene-6-carboxylic acid 3-hydroxy-cyclopentyl ester]
3800 | 20 | N#Cc1ccc(-c2ccc(C[C@H](NC(=O)[C@@H]3Cc4cc5c(cc4CN3C(=O)c3cccnc3)OC(c3ccc(OCc4ccc(Cl)c(Cl)c4)cc3)C(=O)N5)C(=O)O)cc2)cc1 (stereo partly drawn) [Example 4, (S)-3-(4′-Cyano-biphenyl-4-yl)-2-{[(S)-3-[4-(3,4-dichloro-benzyloxy)-phenyl]-2-oxo-6-(pyridine-3-carbonyl)-2,3,5,6,7,8-hexahydro-1H-4-oxa-1,6-diaza-anthracene-7-carbonyl]-amino}-propionic acid]
30000 | 18 | N#Cc1ccc(-c2ccc(C[C@H](NC(=O)[C@@H]3Cc4cc5c(cc4CN3C(=O)[C@@H]3CCCO3)OC(c3ccc(OCc4ccc(Cl)c(Cl)c4)cc3)C(=O)N5)C(=O)O)cc2)cc1 (stereo partly drawn) [Example 5, (S)-3-(4′-Cyano-biphenyl-4-yl)-2-{[(S)-3-[4-(3,4-dichloro-benzyloxy)-phenyl]-2-oxo-6-((S)-tetrahydro-furan-2-carbonyl)-2,3,5,6,7,8-hexahydro-1H-4-oxa-1,6-diaza-anthracene-7-carbonyl]-amino}-propionic acid]
3600 | 7 | N#Cc1ccc(-c2ccc(C[C@H](NC(=O)[C@@H]3Cc4cc5c(cc4CN3C(=O)[C@H]3CCCO3)OC(c3ccc(OCc4ccc(Cl)c(Cl)c4)cc3)C(=O)N5)C(=O)O)cc2)cc1 (stereo partly drawn) [Example 6, (S)-3-(4′-Cyano-biphenyl-4-yl)-2-{[(S)-3-[4-(3,4-dichloro-benzyloxy)-phenyl]-2-oxo-6-((R)-tetrahydro-furan-2-carbonyl)-2,3,5,6,7,8-hexahydro-1H-4-oxa-1,6-diaza-anthracene-7-carbonyl]-amino}-propionic acid]
474 | 35 | N#Cc1ccc(-c2ccc(C[C@H](NC(=O)[C@@H]3Cc4cc5c(cc4CN3CC#Cc3ccccc3)OC(c3ccc(OCc4ccc(Cl)c(Cl)c4)cc3)C(=O)N5)C(=O)O)cc2)cc1 (stereo partly drawn) [Example 7, (S)-3-(4′-Cyano-biphenyl-4-yl)-2-{[(S)-3-[4-(3,4-dichloro-benzyloxy)-phenyl]-2-oxo-6-(3-phenyl-prop-2-ynyl)-2,3,5,6,7,8-hexahydro-1H-4-oxa-1,6-diaza-anthracene-7-carbonyl]-amino}-propionic acid]
134 | 64 | CC(C)OC(=O)N1Cc2cc3c(cc2C[C@H]1C(=O)N[C@@H](Cc1ccc(-c2ccc(C#N)cc2)cc1)C(=O)O)NC(=O)C(c1ccc(OCc2ccc(Cl)c(Cl)c2)cc1)O3 (stereo partly drawn) [Example 8, (S)-7-[(S)-1-Carboxy-2-(4′-cyano-biphenyl-4-yl)-ethylcarbamoyl]-3-[4-(3,4-dichloro-benzyloxy)-phenyl]-2-oxo-1,2,3,5,7,8-hexahydro-4-oxa-1,6-diaza-anthracene-6-carboxylic acid isopropyl ester]
500 | 54 | CC(C)COC(=O)N1Cc2cc3c(cc2C[C@H]1C(=O)N[C@@H](Cc1ccc(-c2ccc(C#N)cc2)cc1)C(=O)O)NC(=O)C(c1ccc(OCc2ccc(Cl)c(Cl)c2)cc1)O3 (stereo partly drawn) [Example 9, (S)-7-[(S)-1-Carboxy-2-(4′-cyano-biphenyl-4-yl)-ethylcarbamoyl]-3-[4-(3,4-dichloro-benzyloxy)-phenyl]-2-oxo-1,2,3,5,7,8-hexahydro-4-oxa-1,6-diaza-anthracene-6-carboxylic acid isobutyl ester]
418 | 51 | CC(C)(C)COC(=O)N1Cc2cc3c(cc2C[C@H]1C(=O)N[C@@H](Cc1ccc(-c2ccc(C#N)cc2)cc1)C(=O)O)NC(=O)C(c1ccc(OCc2ccc(Cl)c(Cl)c2)cc1)O3 (stereo partly drawn) [Example 10, (S)-7-[(S)-1-Carboxy-2-(4′-cyano-biphenyl-4-yl)-ethylcarbamoyl]-3-[4-(3,4-dichloro-benzyloxy)-phenyl]-2-oxo-1,2,3,5,7,8-hexahydro-4-oxa-1,6-diaza-anthracene-6-carboxylic acid 2,2-dimethyl-propyl ester]
606 | 71 | N#Cc1ccc(-c2ccc(C[C@H](NC(=O)[C@@H]3Cc4cc5c(cc4CN3C(=O)OC3CCOCC3)OC(c3ccc(OCc4ccc(Cl)c(Cl)c4)cc3)C(=O)N5)C(=O)O)cc2)cc1 (stereo partly drawn) [Example 11, (S)-7-[(S)-1-Carboxy-2-(4′-cyano-biphenyl-4-yl)-ethylcarbamoyl]-3-[4-(3,4-dichloro-benzyloxy)-phenyl]-2-oxo-1,2,3,5,7,8-hexahydro-4-oxa-1,6-diaza-anthracene-6-carboxylic acid tetrahydro-pyran-4-yl ester]
427 | 61 | N#Cc1ccc(-c2ccc(C[C@H](NC(=O)[C@@H]3Cc4cc5c(cc4CN3C(=O)C3CCC3)OC(c3ccc(OCc4ccc(Cl)c(Cl)c4)cc3)C(=O)N5)C(=O)O)cc2)cc1 (stereo partly drawn) [Example 12, (S)-3-(4′-Cyano-biphenyl-4-yl)-2-({(S)-6-cyclobutanecarbonyl-3-[4-(3,4-dichloro-benzyloxy)-phenyl]-2-oxo-2,3,5,6,7,8-hexahydro-1H-4-oxa-1,6-diaza-anthracene-7-carbonyl}-amino)-propionic acid]
